# In US20130143825A1, “COMPOUNDS FOR USE IN THE TREATMENT OF DISEASES BASED ON THE EXPRESSION OF TOXIC TRANSCRIPTS” (UNIVERSITAT DE VALENCIA, priority 2010, published 2013):
# Non-standard residues stand in square brackets, D forms with d. No end group written: not given here.
# Key:
# [1] = system: MBNL1 binding to the CUG repeats; conditions: in vitro; cited from earlier work
# [2] = system: 103Y-Gal4/+;UAS-CTG(480)/+ flies; test: Lethality phenotype in pupae caused by expression of 480 CTG under 103Y-Gal4 (females born); assay type: in vivo, Drosophila; conditions: administered to larvae in the food; compared with p10
# Protocol: The 120 vials that make up the chemical library were individually assayed on the lethality phenotype in pupae caused by the expression of 480 CTG under the control of 103Y-Gal4 at a concentration of 80 μM. […] Thus, for positions O1, O2, O3, O4, O5 and O6 of the hexapeptide, a total of six, three, six, four, two and seven active amino acids were obtained, respectively (FIG. 2A). In order to perform the deconvolution, 10 of these 28 amino acids were selected, on the basis of their degree of activity in the biological assay (FIG. 2A). Finally, of the possible combinations, 16 sequences were selected to perform the synthesis of the defined hexapeptides (FIG. 2B). The selection of these 16 peptides was based on redundancy criteria between the physical and chemical properties of active amino acids in similar positions.
# At 250 μM, the activity of the peptide decreased, possibly due to a toxic effect of the peptide at higher concentrations.
# In order to determine the contribution of each of the p10 residues to their activity on CTG(480), an alanine scanning experiment was performed. These experiments are based on substituting every amino acid of the peptide with alanine and keeping the rest. Alanine is a small amino acid and, in general, not very active; this is why it is used for this type of studies. Since each alanine substitution examines the contribution of an individual amino acid, this experiment makes it possible, on the one hand, to evaluate whether p10 is susceptible to optimisation (in the event that a substitution increases the efficacy of the molecule), or to determine which amino acids are important for its function (in the event that a substitution decreases the activity thereof). The sequence of p10 allows for 5 substitutions; for this reason, 5 new hexapeptides were synthesised which were assayed in relation to the lethality phenotype in 103Y-Gal4; UAS-CTG(480)/+ flies and commercial food.
# FAM-(CUG)23 RNA = test: Fluorescence gel retardation assay with FAM-(CUG)23; assay type: binding; conditions: peptide 2.5 mM, RNA 60 nM
# Source text: The changes on the RNA caused by p10 in the FP assay are small, probably due to the low molecular weight of the molecule (less than 900 Da). For this reason, it was decided to supplement the study with gel retardation experiments. These assays are based on the differences in electrophoretic mobility between stable protein-nucleic acid complexes and their components separately. Since the FAM-(CUG)23 RNA was available, it was decided to prepare a fluorescence gel retardation assay. After determining the optimal quantity of RNA for detection (60 nM; FIG. 21A), the binding between the latter and MblZF was studied. Said binding caused both a decrease in the intensity of the band corresponding to the free RNA in the gel and the appearance of a signal in the interior of the gel wells (bound RNA).
# In order to determine whether p10 could bind to CUG RNA molecules, it was decided to perform a similar gel retardation experiment between the peptide and FAM-(CUG)23. p10 bound to the RNA, with part of the complex being retained in the well, as described for MblZF. […] This affinity decreased upon decreasing the size of the repeats (FAM-(CUG)4, FIG. 24C). […] This could be due either to a synergic effect between the protein and the peptide or to an additive effect if both should bind to different RNA sites.
# In order to study the specificity of the binding observed between p10 and the CUG repeats, two experiments were performed. In the first place, the five hexapeptides generated during the alanine scanning were assayed. […] In the second place, we studied the effect of p10 on other RNA and DNA sequences, both double-stranded and single-stranded, fluorescently labelled with carboxyfluorescein (FAM) (FIG. 25C).
# [3] = system: GMR-Gal4 UAS-CTG(480) flies; test: Endogenous expression of p10-derived peptides (Gal4/UAS), rough eye phenotype; assay type: in vivo, Drosophila
# Source text: Thus, three different transgenes were designed, with SEQ ID NO: 17-19 (p17-p19), which encoded different peptides, all based on sequence SEQ ID NO: 10 corresponding to p10 (FIG. 9), taking into consideration the codon usage bias in Drosophila (i.e. favouring the use of G, and in particular C, in the synonymous sites; Powell & Moriyama, 1997) and adding an initial Methionine, as well as three spacer Glycines, to sequence SEQ ID NO: 10. Moreover, upstream from the […] initiation codon, 21 nucleotides of the 5′UTR end of the act5C gene of Drosophila which included the Kozak sequence were added, in order to enhance the expression of the transgenes.
# p17 contained the direct sequence of the peptide of SEQ ID NO: 10. As discussed above, the peptides in the hexapeptide chemical library are composed of D-amino acids. The D-forms (dextrogyre) of amino acids are stereoisomers of the L-forms (levogyres) and only L-amino acids are synthesised in the cells and incorporated into proteins. Consequently, if the arrangement of the lateral chains of p10 is important for the function thereof, the latter would be lost when p17 is synthesised by Drosophila from L-aa. For this reason, it was decided to generate construct p18, wherein the peptide sequence of SEQ ID NO: 10 was inverted, leading to a retro-inverse peptide (Chorev & Goodman, 1995; P. M. Fischer, 2003). At the time when these transgenes were generated, the smallest constructs described in the literature encoded peptides with more than 20 amino acids, which is more than twice the size of peptides p17 and p18 (which have only ten amino acids). For this reason, construct p19 was generated, which combined the constructs of peptides p17 and p18, leading to a peptide with 19 amino acids. The three constructs were microinjected in the precursors of the germinal line of Drosophila embryos, leading to 10 lines of transgenic flies for each transgene.
# (§1) The transgenic flies obtained were crossed with the GMR-Gal4 UAS-CTG(480)/CyO and Mhc-Gal4 UAS-CTG(480)/TM6b recombinant fly lines generated during this invention, which directed the expression of the CTG repeats in the eye and the muscle, respectively. As in the case of the sev-Gal4 UAS-CTG(480)/+ flies, the adult GMR-Gal4 UAS-CTG(480)/UAS-GFP flies presented a strong rough eye phenotype. […] However, the opposite phenomenon occurred at 25° C. and at 29° C. […] Given that changes in temperature affect the expression of the CTG(480) transgenes and peptides p17-p19 in a different manner, since the latter are inserted in different regions of the genome, there may be a relation between the quantity of peptide and of repeats that must be reached, whereafter p10 becomes toxic.
# [4] = system: Mhc-Gal4 UAS-CTG(480) flies; test: Endogenous expression of p10-derived peptides in the IFMs; assay type: in vivo, Drosophila; conditions: Mhc-Gal4 line at 25° C., recently ecloded adults
# Protocol: as §1
# This confirms the effect of p10 on CTG(480). Once again, only those lines that carried the p18 and p19 transgenes modified the phenotype.
# 2-AP-(CUG)23 RNA = test: 2-aminopurine fluorescence assay (hairpin opening); assay type: biochemical; conditions: for destructuration of CUG23 probe, comparative 2-aminopurine assay: 100 μM
# Protocol: Measurements of the fluorescence emitted (Y-axis), measured as relative fluorescence units (RFU), by 2-aminopurine in a (CUG)23 RNA (1 μM) in the presence of MblZF (0.1 μM, 1 μM, 2 μM and 5 μM) (A) or p10 (0.1 μM, 1 μM, 2 μM, 5 μM and 100 μM) (B), relative to the fluorescence emitted by the free RNA. p10 caused a 2.9-increase in the fluorescence of 2-AP at 100 μM, which indicates a change towards single-stranded. This effect was not observed when incubating the RNA with DMSO, or with the alanine scanning peptides with sequences: ppyawa and payawe (C).
# In order to confirm whether said changes cause a loss of the hairpin loop structure, an experiment was performed using an RNA composed of 23 CUG repeats, wherein a guanine had been substituted with its analogue 2-aminopurine (2-AP-(CUG)23). When 2-AP is in a single-stranded environment, it emits fluorescence at 375 nm. […] However, upon increasing the concentration of p10 to 100 μM (RNA:peptide 1:100), the 2AP-(CUG)23 RNA underwent a conformational change, from double-stranded to single-stranded, with a 2.9-fold increase in the fluorescence emission of the molecule (FIG. 28B). In order to confirm the specificity of this effect, the same experiment was performed, incubating the alanine scanning peptides (payawe and ppyawa) with the 2-AP-(CUG)23 RNA at the same concentration as p10 (100 μM).
# As may be observed in FIG. 29, in this example we use the 2-aminopurine assay in order to assay 4 peptides (p11, p5, p12 and p15) in addition to p10, obtained from the deconvolution of the combinatorial peptide library explained in this invention. […] The concentration used in all cases is 100 μM.
# [5] = system: 103Y-Gal4/+;UAS-CTG(480)/+ flies; test: Lethality phenotype in pupae caused by expression of 480 CTG under 103Y-Gal4 (females born); assay type: in vivo, Drosophila; conditions: females born vs DMSO control
# CUG60 RNA = test: Circular dichroism of CUG60 RNA; assay type: binding; conditions: RNA 1 μM, p10 0.1-20 μM, MblZF 1 and 1.5 μM, ppyawa 0.5 and 1 μM, payawe 1 μM
# Protocol: However, this effect was not reverted when the RNA was incubated jointly with MblZF and p10, regardless of the order of addition (C).
# In order to study possible changes in the secondary structure of RNA induced by p10, in the first place we performed a circular dichroism (CD) experiment, using an RNA with unlabelled CUG repeats (CUG60). The circular dichroism of nucleic acids is caused by the stacking of the bases that make up the sequence thereof. Consequently, when a molecule binds to RNA, affecting the structure thereof, a change is detected in its CD spectrum. […] When we incubated the RNA with increasing concentrations of the peptide of SEQ ID NO: 10 (0.1 μM, 0.5 μM, 1 μM, 10 μM and 20 μM), a similar effect was observed (FIG. 27B). During the readings, the RNA was kept in the cuvette inside the dichrograph at 10° C. Throughout the 3 hours of each experiment, it was possible for the RNA to have been degraded; this would explain the decrease in the intensity of the signal observed. In order to rule out this possibility, the CD spectrum of CUG60 RNA was measured at times 0 and 3 h, having kept the CUG60 RNA at 10° C. at all times.
compound,measurement,setting,value
NC[C@@H]1O[C@H](O[C@H]2[C@@H](O)[C@H](O[C@@H]3[C@@H](O)[C@H](N)C[C@H](N)[C@H]3O[C@H]3O[C@H](CN)[C@@H](O)[C@H](O)[C@H]3N)O[C@@H]2CO)[C@H](N)[C@@H](O)[C@@H]1O [neomycin B],binding of MBNL1 to the CUG repeats,[1],inhibited the binding of MBNL1
apyawe,"activity on lethality phenotype (number of females), alanine scanning",[2],loss of activity
same,significant binding to FAM-(CUG)23 RNA,FAM-(CUG)23 RNA,None
ppaawe,"activity on lethality phenotype (number of females), alanine scanning",[2],loss of activity
same,significant binding to FAM-(CUG)23 RNA,FAM-(CUG)23 RNA,None
CN1C(=Cc2cc[n+](C)c3ccccc23)Sc2ccccc21 [thiazole orange],binding of MBNL1 to the CUG repeats,[1],inhibited the binding of MBNL1
ppyaae,"activity on lethality phenotype (number of females), alanine scanning",[2],loss of activity
same,significant binding to FAM-(CUG)23 RNA,FAM-(CUG)23 RNA,None
p18: endogenously expressed ten amino acid peptide with the sequence of p10 inverted (retro-inverse) (MGGGEWAYPP; not fully specified),rough eye phenotype on co-expression with CTG(480),[3]; 19° C. and 21° C.,visibly less rough
same,eye phenotype on co-expression with CTG(480),[3]; 25° C.,enhanced the toxicity of the CTG repeats
same,phenotype of expression of peptide by itself,"[3]; 25° C. and 29° C., without CTG(480)",did not cause any phenotype
same,offspring of crossing with GMR-Gal4 UAS-CTG(480)/CyO,[3]; 29° C.,did not produce offspring without the CyO balancer
same,transgenic lines assayed that modified the phenotype of GMR-Gal4 UAS-CTG(480) flies,[3]; in vivo,all the lines
same,histological defects of the IFMs on co-expression with CTG(480),[4],suppressed the histological defects of the IFMs
p5: defined hexapeptide obtained following deconvolution of the D-amino acid combinatorial library ([dC][dQ][dY][dA][dQ][dE]),"destructuration of CUG23 probe, comparative 2-aminopurine assay",2-AP-(CUG)23 RNA,significant levels of specificity and efficacy
same,Treated born/Control born,[5]; 25 μM,2.0
p15: defined hexapeptide obtained following deconvolution of the D-amino acid combinatorial library ([dP][dQ][dY][dT][dQ][dE]),"destructuration of CUG23 probe, comparative 2-aminopurine assay",2-AP-(CUG)23 RNA,significant levels of specificity and efficacy
same,Treated born/Control born,[5]; 40 μM,0.5
payawe,"activity on lethality phenotype (number of females), alanine scanning",[2],loss of activity
same,significant binding to FAM-(CUG)23 RNA,FAM-(CUG)23 RNA,None
same,change of circular dichroism spectrum of CUG60,CUG60 RNA,did not occur
same,change of circular dichroism spectrum of CUG60,CUG60 RNA; listed as p29.4,did not change the RNA spectrum
same,increase in the fluorescence emission of 2-AP-(CUG)23,"2-AP-(CUG)23 RNA; peptide 100 μM, RNA 1 μM (1:100)",None of these peptides caused changes
